Measured values: patent US20030059511A1, “Sweetener compositions and uses thereof” (AJINOMOTO CO., INC., priority 1999, published 2003)

Key:
Type in all cases: in vivo, human
[1] = Taste characteristics in a cola drink (9 items, similarity index vs cola drink containing 10% sucrose); settings: non-carbonated cola drink, PSE 10%, vs cola drink with 10% sucrose; smaller = closer to sucrose; 8 panelists
Experimental: The following experiments were performed in the same way as that of Example 2. Instead of aqueous solution, the cola drink of each of derivatives 1 to 9 having a sweetness level equivalent to that of PSE 10% was prepared, and compared with the cola drink containing 10% sucrose. The evaluation method and so on were same as that of Example 2.
When carbon dioxide is blown in the cola drink, the carbonated cola drink is prepared, however, the taste of the cola drink can be compared more easily in that without carbon dioxide. Thus the sensory evaluation of non-carbonated cola drink was performed.
The composition of the cola drink employed was same as that of Example 1.
(§1) The similarity indexes were calculated as those of aqueous solutions. The smaller the similarity index becomes, the better the taste balances, and the closer the taste is to the taste characteristics (quality) of sucrose. The total taste becomes preferable. The similarity indexes of each derivatives are shown as follows. […]
The following experiments were conducted in the same way as that of Example 15. Instead of aqueous solution, the cola drink of each of derivatives 1 to 9 having a sweetness level equivalent to that of PSE 10% was prepared, and compared with the cola drink containing 10% sucrose. All of the evaluation method and so on were same as those of Example 15.
When carbon dioxide is blown in the cola drink, the carbonated cola drink is prepared, however, the taste of the cola drink can be compared more easily in that without carbon dioxide. Thus the non-carbonated cola drink was organoleptically evaluated.
The composition of the cola drink employed was same as that of Example 14.
as §1, with “(quality)of” for “(quality) of”, “each of the” for “each”

[2] = Measurement of the magnification of sweetness intensity in aqueous solution (sensory evaluation against sucrose solutions); settings: for Amount equivalent to PSE 10% / intensity of sweetness, times that of sucrose (magnification of sweetness intensity): aqueous solution; for intensity of sweetness, times that of sucrose (magnification of sweetness intensity): about PSE 10%
Experimental: (§2) An aqueous solution was prepared by diluting derivative 2 to be PSE 10% concentration (15.5 mg/1000 ml=10/6500 g/100 ml), assuming that the intensity of sweetness of derivative 2 was 6500 times that of sucrose. Separately, aqueous sucrose solutions having sucrose concentrations of (a)6.94%, (b)8.33%, (c)10%, (d)12%, and (e)14.4% were prepared. The sensory evaluation was performed by determining which sucrose solution was closest to the solution of derivative 2 in the sweetness intensity. The result of calculation of the average of points of 20 panelists was 2.25 point.
(§3) The intensity of sweetness of the solution of derivative 2 was 8.75% according to the following equation: (10.0−8.33)×0.25+8.33=8.75. Accordingly, the intense sweetness of derivative 2 was 5600 (=8.75/0.00155) times that of sucrose. According to the same experiment, the intensity of sweetness of derivative 1 was 22600 times that of sucrose. Furthermore, the magnification of sweetness intensity of other derivatives (3 to 9) can be determined by the same method.
as §3, with “intensity of” for “intense”
as §2, with “intense” for “intensity of”
The sweetness intensity of the solution of derivative 2 was 8.75% according to the following equation: (10.0−8.33)×0.25+8.33=8.75. Therefore, the magnification of sweetness intensity of derivative 2 was 5600 (=8.75/0.00155) times that of sucrose. When the same experiment was performed, the magnification of sweetness intensity of derivative 1 was 22600 times that of sucrose.

[3] = Equivalent concentration of bitter taste, sensory evaluation, mixed amino acids (Example 29); settings: 2% mixed amino acids; addition: Derivative 2 10 ppm, Glycyrrhizin 250 ppm, Sucrose 50000 ppm; no addition 0.105
Experimental: (§4) With respect to the solution produced by adding derivative 1 (the product of the present invention), or adding nothing (no addition; the reference product) in the concentration shown in the following table 4 to the amino acid solution (2% solution of arginine by weight), the sensory evaluation was performed (using 10 panelists), and the equivalent concentration of bitter taste was determined. The results were shown in the table 4, wherein the equivalent concentration of bitter taste was shown in the concentration of aqueous solution of anhydrous caffeine which is a substance of bitter taste.
With respect to the solution produced by adding derivative 2, Glycyrrhizin or sucrose (the product of the present invention), or adding nothing (no addition; the-reference product) to 2% (by weight) solution of the mixed amino acids (leucine:valine:isoleucine=1:0.5:0.5 by weight), the sensory evaluation was performed (using 10 panelists), and the equivalent concentration of bitter taste was determined in the same way as that described in Example 28, and shown in the table 5.

[4] = Equivalent concentration of bitter taste (Example 30), ferrous citrate; settings: derivative 4 2.2 ppm; ferrous citrate 50 ppm; no addition 0.027
Experimental: as §4
(§5) With respect to the solution produced by adding derivative 4 (2.2 ppm) to each of the substances of Quinine sulfate (39 ppm), anhydrous caffeine (2000 ppm), ferrous citrate (50 ppm), calcium lactate (1500 ppm), and thiamine hydrochloride (5000 ppm) (the product of the present invention), or adding nothing thereto (no addition; the reference product) the reference product (no addition), the sensory evaluation was performed (using 10 panelists), and the equivalent concentration of bitter taste was determined in the same way as that described in Example 28, and shown in table 6.

[5] = Equivalent concentration of bitter taste (Example 30), Quinine sulfate; settings: derivative 4 2.2 ppm; Quinine sulfate 39 ppm; no addition 0.084
Experimental: as §4, §5

[6] = Equivalent concentration of bitter taste (Example 30), calcium lactate; settings: derivative 4 2.2 ppm; calcium lactate 1500 ppm; no addition 0.054
Experimental: as §4, §5

[7] = Equivalent concentration of bitter taste (Example 30), anhydrous caffeine; settings: derivative 4 2.2 ppm; anhydrous caffeine 2000 ppm; no addition 0.205
Experimental: as §4, §5

[8] = Equivalent concentration of bitter taste (Example 30), thiamine hydrochloride; settings: derivative 4 2.2 ppm; thiamine hydrochloride 5000 ppm; no addition 0.131
Experimental: as §4, §5

COC(=O)[C@H](Cc1ccccc1)NC(=O)[C@H](CC(=O)O)NCCCc1ccc(OC)c(O)c1 [Derivative 1, N-[N-[3-(3-hydroxy-4-methoxyphenyl)propyl] -L-α-aspartyl]-L-phenylalanine 1-methyl ester]
Similarity index [1]: 0.78
Amount equivalent to PSE 10% [2]: 4.5 mg/1000 ml
intensity of sweetness, times that of sucrose (magnification of sweetness intensity) [2]: 22600 times

COC(=O)[C@H](Cc1ccccc1)NC(=O)[C@H](CC(=O)O)NCCCc1ccc(OC)cc1 [Derivative 2, N-[N-[3-(4-methoxyphenyl)propyl]-L-α-aspartyl]-L-phenylalanine 1-methyl ester]
Equivalent concentration of bitter taste [3]: 0.051 g/100 g
Similarity index [1]: 0.80
Amount equivalent to PSE 10% [2]: 17.9 mg/1000 ml
intensity of sweetness of the solution ([2]; aqueous solution 15.5 mg/1000 ml, sucrose-equivalent concentration): 8.75%
intensity of sweetness, times that of sucrose (magnification of sweetness intensity) [2]: 5600 times
average of points of 20 panelists ([2]; derivative 2 aqueous solution 15.5 mg/1000 ml, closest of sucrose solutions (a)6.94% to (e)14.4%): 2.25 point

COC(=O)[C@H](Cc1ccccc1)NC(=O)[C@H](CC(=O)O)NCCC(C)(C)c1ccc(O)c(C)c1 [Derivative 4, N-[N-[3-(3-methyl-4-hydroxyphenyl)-3-methylbutyl]-L-α-aspartyl]-L-phenylalanine 1-methyl ester]
Equivalent concentration of bitter taste (Amount of anhydrous caffeine g/100 g), Ferrous citarte [4]: 0.020 g/100 g
Equivalent concentration of bitter taste (Amount of anhydrous caffeine g/100 g), Quinine sulfate [5]: 0.025 g/100 g
Equivalent concentration of bitter taste (Amount of anhydrous caffeine g/100 g), Calcium lactate [6]: 0.025 g/100 g
Equivalent concentration of bitter taste (Amount of anhydrous caffeine g/100 g), Caffeine (anhydrous) [7]: 0.045 g/100 g
Similarity index [1]: 1.04
Amount equivalent to PSE 10% [2]: 2.3 mg/1000 ml
Equivalent concentration of bitter taste (Amount of anhydrous caffeine g/100 g), Tiamine hydrochloride [8]: 0.093 g/100 g

COC(=O)[C@H](Cc1ccccc1)NC(=O)[C@H](CC(=O)O)NCCC(C)(C)c1ccc(O)cc1 [Derivative 6, N-[N-[3-(4-hydroxyphenyl)-3-methylbutyl]-L-α-aspartyl]-L-phenylalanine 1-methyl ester]
Similarity index [1]: 0.81
Amount equivalent to PSE 10% [2]: 6.7 mg/1000 ml

COC(=O)[C@H](Cc1ccccc1)NC(=O)[C@H](CC(=O)O)NCCCc1ccc(O)c(C)c1 [Derivative 8, N-[N-[3-(3-methyl-4-hydroxyphenyl)propyl]-L-α-aspartyl]-L-phenylalanine 1-methyl ester]
Similarity index [1]: 1.00
Amount equivalent to PSE 10% [2]: 5.5 mg/1000 ml
